Experimental data published in ChEMBL document CHEMBL1201862, “PubChem BioAssay data set” (2004).
The source made the active and inactive calls.

Tests used:
[1] = biological target: Mothers against decapentaplegic homolog 3 (Homo sapiens, UniProt P84022); assay: blockers of Smad3 complex formation in lysate – cell lysate, secondary confirmation, chemiluminescent ELISA, HEK293 lysate, dose response (AID 1058); type: functional
[2] = cells; type: functional, cell-based
[3] = Luminescence Cell-Based Dose Response HTS to Identify Inhibitors of 5'UTR Stem-Loop Driven Prion Protein mRNA Translation in H4 Neuroglioblastoma Cells. [Related pubchem assays: 1827 (Project Summary), 1813 (Primary HTS)]; type: functional
[4] = Luminescence-based counterscreen assay for KLF5 inhibitors: dose response cell-based high throughput screening assay to identify cytotoxic compounds using the IEC-6 intestinal epithelial cell line. [Related pubchem assays: 1700 (Primary screen.), 1834 (Confirmation screen.), 1858 (Summary AID.), 1905 (Counterscreen.)]; type: functional
[5] = cells; type: functional, cell-based; remark: listed apart in the source
[6] = THP-1 cell cytotoxicity, dose response, cytotoxicity control for non-replicating M. tuberculosis project (AID 489025); type: functional
[7] = HepG2 cell cytotoxicity, dose response, cytotoxicity control for non-replicating M. tuberculosis project (AID 489018); type: functional; details: Mycobacterium tuberculosis
[8] = Vero E6 cell cytotoxicity, dose response, cytotoxicity control for non-replicating M. tuberculosis project, secondary assay (AID 492998); type: functional, VeroE6; details: Vero C1008
[9] = HEK-293T viability loss after treatment – luminescence, T-cell screen hits, cytotoxicity control for TCR NF-kB inhibitor project, dose response (AID 489026); type: functional, cell-based;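 note: cells exposed to compound about 14 hours before the viability readout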
[10] = biological target: T1, Microphthalmia-associated transcription factor (Homo sapiens, UniProt O75030); assay: reducers of TRPM1 reporter luminescence, concentration series – cell-based, SK-MEL-5, cherry-picked, set 3, MITF inhibitor project, dose response (AID 493073); type: functional;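 note: SK-MEL-5 melanoma cells with luciferase driven by the MITF target TRPM1 promoter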
T1 sequence (O75030 whole entry): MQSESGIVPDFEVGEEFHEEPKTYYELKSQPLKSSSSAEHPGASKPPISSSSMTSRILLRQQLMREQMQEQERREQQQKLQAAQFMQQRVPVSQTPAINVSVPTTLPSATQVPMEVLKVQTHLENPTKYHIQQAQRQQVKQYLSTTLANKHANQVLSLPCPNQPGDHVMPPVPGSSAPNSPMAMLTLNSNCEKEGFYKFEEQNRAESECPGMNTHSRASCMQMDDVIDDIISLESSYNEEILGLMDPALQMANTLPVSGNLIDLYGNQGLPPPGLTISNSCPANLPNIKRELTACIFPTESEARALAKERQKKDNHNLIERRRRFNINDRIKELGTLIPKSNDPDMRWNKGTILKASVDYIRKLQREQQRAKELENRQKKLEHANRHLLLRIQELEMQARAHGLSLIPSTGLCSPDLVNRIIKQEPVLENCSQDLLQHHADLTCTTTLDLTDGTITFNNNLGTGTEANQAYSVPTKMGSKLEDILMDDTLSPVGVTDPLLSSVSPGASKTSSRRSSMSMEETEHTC

[11] = test system: HEK293; assay: EBV LMP1 TES2 canonical NF-kB signalling blockers – cell-based, HEK293, luciferase, cherry-pick, dose response (AID 588343); type: functional; details: Homo sapiens
[12] = test system: INS1; assay: INS-1E survival protection against cytokine death – cell-based, luminescence, retest, dose response (AID 449756); type: functional; details: Rattus norvegicus;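 note: cell death triggered by IL-1 beta plus TNF-alpha plus IFN-gamma mixture; protective hits raise ATP signal compared with cytokine alone wells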
[13] = biological target: T2, Leucine aminopeptidase (Plasmodium falciparum 3D7, UniProt Q8IL11); assay: P. falciparum M17LAP inhibitors, primary screen, biochemical, fluorogenic H-Leu-NHMec substrate, 1536-well (AID 1619); type: functional
T2 sequence (Q8IL11 whole entry): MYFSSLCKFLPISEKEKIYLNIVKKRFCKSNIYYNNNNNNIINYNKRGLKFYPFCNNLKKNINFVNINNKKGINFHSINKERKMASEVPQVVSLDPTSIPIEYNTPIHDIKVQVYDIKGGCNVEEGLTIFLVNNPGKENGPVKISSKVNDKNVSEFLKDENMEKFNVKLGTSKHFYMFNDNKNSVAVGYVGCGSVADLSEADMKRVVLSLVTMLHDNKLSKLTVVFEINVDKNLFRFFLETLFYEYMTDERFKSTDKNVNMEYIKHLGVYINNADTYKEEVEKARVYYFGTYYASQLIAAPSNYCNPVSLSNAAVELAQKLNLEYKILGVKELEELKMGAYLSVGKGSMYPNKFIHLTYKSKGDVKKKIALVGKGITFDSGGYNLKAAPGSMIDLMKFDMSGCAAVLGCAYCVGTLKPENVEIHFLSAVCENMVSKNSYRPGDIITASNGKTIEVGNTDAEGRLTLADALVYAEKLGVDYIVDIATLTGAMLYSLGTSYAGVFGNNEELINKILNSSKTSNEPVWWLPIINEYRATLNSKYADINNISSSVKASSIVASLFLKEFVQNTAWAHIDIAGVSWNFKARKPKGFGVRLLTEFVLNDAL

[14] = biological target: Lysosomal acid glucosylceramidase (Homo sapiens, UniProt P04062); assay: Dose response cell-based high throughput screening assay to identify enhancers of beta-glucosidase activity. [Related pubchem assays: 784 ]; type: functional
[15] = biological target: T3, Tyrosine-protein phosphatase non-receptor type 7 (Homo sapiens, UniProt P35236); type: functional
T3 sequence (P35236 whole entry): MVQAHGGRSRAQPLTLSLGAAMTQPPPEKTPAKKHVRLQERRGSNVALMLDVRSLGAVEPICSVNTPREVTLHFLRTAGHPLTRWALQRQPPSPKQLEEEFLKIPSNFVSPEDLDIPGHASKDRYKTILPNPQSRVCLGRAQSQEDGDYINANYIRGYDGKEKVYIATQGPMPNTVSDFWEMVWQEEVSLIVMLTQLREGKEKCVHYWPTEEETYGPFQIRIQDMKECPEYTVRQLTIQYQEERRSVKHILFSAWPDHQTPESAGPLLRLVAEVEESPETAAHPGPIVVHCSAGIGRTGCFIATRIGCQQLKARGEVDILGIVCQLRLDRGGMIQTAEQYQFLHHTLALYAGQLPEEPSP

[16] = biological target: Glyceraldehyde-3-phosphate dehydrogenase (Homo sapiens, UniProt P04406)
[17] = biological target: Heat shock cognate 71 kDa protein (Homo sapiens, UniProt P11142); assay: In Vitro Hsc70 Dose Response Fluorescence Polarization Assay. [Related pubchem assays: 1072 ]
[18] = biological target: Heat shock 70 kDa protein 1A (Homo sapiens, UniProt P0DMV8); assay: inhibition of Hsp70 binding activity – biochemical, fluorescence polarization, SAR follow-up (AID 1072)
[19] = biological target: T4, Dual specificity protein phosphatase 6 (Rattus norvegicus, UniProt Q64346)
T4 sequence (Q64346 whole entry): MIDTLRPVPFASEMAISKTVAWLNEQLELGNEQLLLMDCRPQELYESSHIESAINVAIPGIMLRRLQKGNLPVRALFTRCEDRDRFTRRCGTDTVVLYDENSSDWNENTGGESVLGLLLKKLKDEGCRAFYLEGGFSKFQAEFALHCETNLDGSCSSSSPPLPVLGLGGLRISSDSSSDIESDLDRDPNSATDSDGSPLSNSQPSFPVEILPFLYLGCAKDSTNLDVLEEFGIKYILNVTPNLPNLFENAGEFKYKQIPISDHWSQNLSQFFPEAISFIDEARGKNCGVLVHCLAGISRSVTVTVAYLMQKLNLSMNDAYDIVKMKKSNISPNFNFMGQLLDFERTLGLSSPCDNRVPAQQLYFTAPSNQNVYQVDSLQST

[20] = biological target: T4, Dual specificity protein phosphatase 6; type: functional
[21] = biological target: Luciferin 4-monooxygenase (Photinus pyralis, UniProt P08659); assay: Counter Screen for Luciferase-based Assay Positives. [Related pubchem assays: 620, 618, 411 ]
[22] = test system: HT-1080; assay: HT1080 cell viability loss – fluorescence readout (AID 620); type: functional, cell-based; details: Homo sapiens
[23] = Late stage assay provider results from the probe development effort to identify selective inhibitors of heat shock protein 90 (HSP90): Absorbance-based cell proliferation assay in SKBR3 cells.; type: functional; details: SK-BR-3
[24] = viability loss in HEK293 kidney cells – cell-based, cherry-picks, set 5, cytotoxicity control, dose response (AID 1053117); type: functional
[25] = Late stage assay provider results from the probe development effort to identify selective inhibitors of heat shock protein 90 (HSP90): Absorbance-based cell proliferation assay in MCF7 cells.; type: functional
[26] = blockers of FN fibrillogenesis by fibroblasts – AH1F cells, Alexa488-FN fluorescence, cherry-picks, dose response (AID 1035475); type: functional, cell-based
[27] = biological target: T5, Estrogen receptor (Homo sapiens, UniProt P03372); assay: ERα coactivator recruitment enhancers – biochemical, TR-FRET, ERα LBD, dose response (AID 737)
T5 sequence (P03372 whole entry): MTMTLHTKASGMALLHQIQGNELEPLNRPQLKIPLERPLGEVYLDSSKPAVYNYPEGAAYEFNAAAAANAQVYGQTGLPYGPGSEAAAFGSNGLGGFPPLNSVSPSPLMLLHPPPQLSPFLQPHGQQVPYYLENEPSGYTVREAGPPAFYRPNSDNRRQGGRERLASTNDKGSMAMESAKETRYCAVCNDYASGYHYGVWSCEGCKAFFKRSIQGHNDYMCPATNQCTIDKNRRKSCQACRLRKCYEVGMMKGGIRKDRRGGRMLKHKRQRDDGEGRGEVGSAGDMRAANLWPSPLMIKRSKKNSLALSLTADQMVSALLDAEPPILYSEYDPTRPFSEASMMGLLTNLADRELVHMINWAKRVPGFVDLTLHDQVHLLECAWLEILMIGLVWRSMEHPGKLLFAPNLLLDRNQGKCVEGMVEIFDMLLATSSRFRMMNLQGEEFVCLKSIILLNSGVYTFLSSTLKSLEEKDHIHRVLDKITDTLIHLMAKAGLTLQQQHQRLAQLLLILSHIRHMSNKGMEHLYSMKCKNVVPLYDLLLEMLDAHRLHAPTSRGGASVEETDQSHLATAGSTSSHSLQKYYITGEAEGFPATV

[28] = biological target: Cytochrome P450 2C9 (Homo sapiens, UniProt P11712); details: Potency
[29] = test system: Streptococcus sp. 'group A'; assay: Streptococcus pyogenes SK(-)GAS viability under kanamycin – luminescence, BacTiterGlo, confirmation, counter-screen for streptokinase expression inhibitor project, dose response (AID 1900); type: functional, organism-based
[30] = test system: Streptococcus; assay: Luminescence Microorganism-Based Dose Response Follow up to Identify Compounds Cytotoxic to Streptococcus. [Related pubchem assays: 1677 (Project Summary), 1915, 1914, 1902 (Retest at Dose), 1900 (Counter Screen), 1662 (Primary HTS)]; type: functional, organism-based
[31] = biological target: T6, Streptokinase A (Streptococcus pyogenes serotype M1, UniProt P10520); assay: viability-normalized secreted streptokinase activity reduction – plasminogen activation absorbance, OD405, dose response (AID 1914); type: functional, Streptococcus pyogenes M1 GAS;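 note: secreted streptokinase activity via plasminogen activation per viability signal from cell pellet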
T6 sequence (P10520 whole entry): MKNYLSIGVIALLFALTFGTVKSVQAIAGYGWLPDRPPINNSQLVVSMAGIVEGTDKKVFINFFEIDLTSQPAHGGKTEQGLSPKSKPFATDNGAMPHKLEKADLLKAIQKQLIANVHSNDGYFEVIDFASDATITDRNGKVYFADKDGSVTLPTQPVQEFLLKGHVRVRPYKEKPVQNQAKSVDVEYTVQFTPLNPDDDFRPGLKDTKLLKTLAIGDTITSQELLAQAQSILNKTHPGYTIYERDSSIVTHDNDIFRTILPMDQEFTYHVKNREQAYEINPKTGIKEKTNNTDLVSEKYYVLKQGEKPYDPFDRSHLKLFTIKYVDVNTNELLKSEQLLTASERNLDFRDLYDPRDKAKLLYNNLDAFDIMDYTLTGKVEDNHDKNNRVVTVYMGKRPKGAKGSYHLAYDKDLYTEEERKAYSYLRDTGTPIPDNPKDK

[32] = test system: Streptococcus; assay: GAS UMAA2166 growth inhibition – luminescence, BacTiterGlo, counter-screen for streptokinase expression inhibitor project, dose response (AID 1915); type: functional, organism-based;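 note: potency for reduction of bacterial viability or growth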
[33] = biological target: Disintegrin and metalloproteinase domain-containing protein 17 (Homo sapiens, UniProt P78536); assay: inhibition of ADAM17 substrate cleavage – biochemical, quenched FRET substrate, counter-screen for ADAM10 exosite inhibitor project, dose response (AID 743253)
Sequence of Disintegrin and metalloproteinase domain-containing protein 17 (P78536 whole entry, the tested form may be a part): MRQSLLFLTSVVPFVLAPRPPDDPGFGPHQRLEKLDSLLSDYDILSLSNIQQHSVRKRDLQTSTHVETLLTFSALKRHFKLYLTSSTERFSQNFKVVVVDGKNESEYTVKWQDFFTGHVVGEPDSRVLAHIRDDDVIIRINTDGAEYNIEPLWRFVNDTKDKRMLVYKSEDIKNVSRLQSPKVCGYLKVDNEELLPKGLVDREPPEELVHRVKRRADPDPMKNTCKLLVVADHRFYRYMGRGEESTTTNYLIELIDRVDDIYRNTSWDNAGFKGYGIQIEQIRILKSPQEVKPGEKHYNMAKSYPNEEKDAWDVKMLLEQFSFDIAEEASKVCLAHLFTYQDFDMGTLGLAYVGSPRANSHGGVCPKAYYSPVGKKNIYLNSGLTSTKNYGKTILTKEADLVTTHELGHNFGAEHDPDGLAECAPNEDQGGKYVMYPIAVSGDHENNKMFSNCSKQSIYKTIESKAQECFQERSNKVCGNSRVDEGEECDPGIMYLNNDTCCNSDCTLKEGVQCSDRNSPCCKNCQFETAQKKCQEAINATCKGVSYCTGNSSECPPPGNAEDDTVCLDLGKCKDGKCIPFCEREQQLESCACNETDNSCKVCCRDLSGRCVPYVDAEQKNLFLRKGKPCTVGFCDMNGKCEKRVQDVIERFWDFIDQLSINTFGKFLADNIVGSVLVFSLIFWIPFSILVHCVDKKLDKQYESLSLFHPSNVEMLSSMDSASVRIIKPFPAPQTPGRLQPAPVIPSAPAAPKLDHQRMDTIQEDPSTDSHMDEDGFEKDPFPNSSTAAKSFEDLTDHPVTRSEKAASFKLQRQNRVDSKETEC

Sequence of Lysosomal acid glucosylceramidase (P04062 whole entry): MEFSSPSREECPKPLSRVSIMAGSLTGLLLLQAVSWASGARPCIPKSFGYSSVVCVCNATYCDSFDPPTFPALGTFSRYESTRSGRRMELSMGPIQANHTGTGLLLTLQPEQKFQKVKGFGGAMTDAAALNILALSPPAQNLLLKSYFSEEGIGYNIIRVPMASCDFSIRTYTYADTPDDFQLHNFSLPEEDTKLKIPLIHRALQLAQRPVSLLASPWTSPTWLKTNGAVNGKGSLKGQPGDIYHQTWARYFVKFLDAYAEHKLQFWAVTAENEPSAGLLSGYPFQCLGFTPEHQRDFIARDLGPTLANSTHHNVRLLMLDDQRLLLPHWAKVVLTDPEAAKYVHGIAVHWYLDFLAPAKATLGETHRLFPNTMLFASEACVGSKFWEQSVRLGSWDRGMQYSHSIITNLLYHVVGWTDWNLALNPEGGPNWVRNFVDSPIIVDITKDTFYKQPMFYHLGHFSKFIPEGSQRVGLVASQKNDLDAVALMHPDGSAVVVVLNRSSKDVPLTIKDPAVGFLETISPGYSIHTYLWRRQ
Sequence of Heat shock cognate 71 kDa protein (P11142 whole entry): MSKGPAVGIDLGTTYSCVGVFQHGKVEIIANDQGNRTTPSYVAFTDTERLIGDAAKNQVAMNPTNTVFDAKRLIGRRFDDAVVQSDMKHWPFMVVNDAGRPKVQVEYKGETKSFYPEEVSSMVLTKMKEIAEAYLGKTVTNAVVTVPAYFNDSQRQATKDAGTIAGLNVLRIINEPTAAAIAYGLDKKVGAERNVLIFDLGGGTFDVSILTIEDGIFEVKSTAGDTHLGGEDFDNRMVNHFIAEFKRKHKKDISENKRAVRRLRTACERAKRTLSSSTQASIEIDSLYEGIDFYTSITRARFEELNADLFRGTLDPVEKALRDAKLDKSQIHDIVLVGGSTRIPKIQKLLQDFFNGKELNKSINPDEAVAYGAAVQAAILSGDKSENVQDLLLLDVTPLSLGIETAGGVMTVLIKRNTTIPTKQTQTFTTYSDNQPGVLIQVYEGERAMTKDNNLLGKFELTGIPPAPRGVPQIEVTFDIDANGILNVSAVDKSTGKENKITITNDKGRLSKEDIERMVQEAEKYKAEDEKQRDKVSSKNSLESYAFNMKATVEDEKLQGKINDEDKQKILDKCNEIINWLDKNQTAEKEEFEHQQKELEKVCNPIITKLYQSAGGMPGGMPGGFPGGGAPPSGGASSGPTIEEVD
Sequence of Mothers against decapentaplegic homolog 3 (P84022 whole entry): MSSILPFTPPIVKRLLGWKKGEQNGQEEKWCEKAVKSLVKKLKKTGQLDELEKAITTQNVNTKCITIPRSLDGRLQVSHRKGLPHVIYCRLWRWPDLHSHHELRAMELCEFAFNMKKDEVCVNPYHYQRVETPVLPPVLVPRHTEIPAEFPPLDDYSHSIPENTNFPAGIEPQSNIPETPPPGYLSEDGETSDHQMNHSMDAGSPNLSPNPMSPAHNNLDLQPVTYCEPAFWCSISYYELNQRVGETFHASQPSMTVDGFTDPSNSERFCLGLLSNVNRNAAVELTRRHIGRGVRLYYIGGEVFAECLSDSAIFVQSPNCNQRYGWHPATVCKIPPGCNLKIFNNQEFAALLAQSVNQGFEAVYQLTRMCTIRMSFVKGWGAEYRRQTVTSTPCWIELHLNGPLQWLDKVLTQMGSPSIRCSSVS
Sequence of Cytochrome P450 2C9 (P11712 whole entry): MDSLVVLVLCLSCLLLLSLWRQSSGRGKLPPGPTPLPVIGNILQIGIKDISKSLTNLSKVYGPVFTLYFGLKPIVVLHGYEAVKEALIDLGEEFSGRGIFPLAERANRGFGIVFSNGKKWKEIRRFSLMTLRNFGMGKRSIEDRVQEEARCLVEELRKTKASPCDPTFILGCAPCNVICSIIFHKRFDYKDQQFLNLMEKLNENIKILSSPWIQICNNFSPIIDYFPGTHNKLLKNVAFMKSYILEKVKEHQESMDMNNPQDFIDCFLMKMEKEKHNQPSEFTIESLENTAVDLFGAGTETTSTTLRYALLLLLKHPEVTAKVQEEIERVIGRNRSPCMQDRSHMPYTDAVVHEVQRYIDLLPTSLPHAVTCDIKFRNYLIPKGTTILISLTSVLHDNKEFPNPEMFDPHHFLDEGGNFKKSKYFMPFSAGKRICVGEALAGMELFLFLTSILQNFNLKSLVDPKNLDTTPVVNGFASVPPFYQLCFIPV
Sequence of Heat shock 70 kDa protein 1A (P0DMV8 whole entry): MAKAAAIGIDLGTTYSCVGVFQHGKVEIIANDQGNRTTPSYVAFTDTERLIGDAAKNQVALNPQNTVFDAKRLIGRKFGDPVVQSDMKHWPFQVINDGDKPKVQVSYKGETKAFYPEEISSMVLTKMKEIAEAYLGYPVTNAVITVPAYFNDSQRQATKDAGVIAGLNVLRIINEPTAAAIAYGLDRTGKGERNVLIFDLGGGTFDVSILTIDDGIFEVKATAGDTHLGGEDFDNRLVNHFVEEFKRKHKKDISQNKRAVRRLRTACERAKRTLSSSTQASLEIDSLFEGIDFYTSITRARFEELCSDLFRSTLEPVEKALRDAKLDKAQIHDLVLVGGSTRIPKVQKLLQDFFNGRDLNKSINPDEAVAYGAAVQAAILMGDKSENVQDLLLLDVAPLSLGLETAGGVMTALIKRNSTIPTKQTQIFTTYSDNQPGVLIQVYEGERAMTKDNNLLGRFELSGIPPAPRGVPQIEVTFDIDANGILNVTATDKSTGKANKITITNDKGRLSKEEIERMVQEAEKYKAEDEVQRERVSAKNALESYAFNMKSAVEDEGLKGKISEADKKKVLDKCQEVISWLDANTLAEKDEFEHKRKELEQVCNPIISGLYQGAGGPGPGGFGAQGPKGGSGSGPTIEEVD
Sequence of Glyceraldehyde-3-phosphate dehydrogenase (P04406 whole entry): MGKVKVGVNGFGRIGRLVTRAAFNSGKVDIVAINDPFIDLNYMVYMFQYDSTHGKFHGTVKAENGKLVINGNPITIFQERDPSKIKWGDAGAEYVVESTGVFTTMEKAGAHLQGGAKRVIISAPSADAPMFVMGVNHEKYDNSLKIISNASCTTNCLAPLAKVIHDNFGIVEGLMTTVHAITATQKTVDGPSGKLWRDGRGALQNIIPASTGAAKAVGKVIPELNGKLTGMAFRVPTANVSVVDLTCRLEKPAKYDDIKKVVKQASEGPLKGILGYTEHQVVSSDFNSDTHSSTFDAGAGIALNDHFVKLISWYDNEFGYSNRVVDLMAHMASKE
Sequence of Luciferin 4-monooxygenase (P08659 whole entry): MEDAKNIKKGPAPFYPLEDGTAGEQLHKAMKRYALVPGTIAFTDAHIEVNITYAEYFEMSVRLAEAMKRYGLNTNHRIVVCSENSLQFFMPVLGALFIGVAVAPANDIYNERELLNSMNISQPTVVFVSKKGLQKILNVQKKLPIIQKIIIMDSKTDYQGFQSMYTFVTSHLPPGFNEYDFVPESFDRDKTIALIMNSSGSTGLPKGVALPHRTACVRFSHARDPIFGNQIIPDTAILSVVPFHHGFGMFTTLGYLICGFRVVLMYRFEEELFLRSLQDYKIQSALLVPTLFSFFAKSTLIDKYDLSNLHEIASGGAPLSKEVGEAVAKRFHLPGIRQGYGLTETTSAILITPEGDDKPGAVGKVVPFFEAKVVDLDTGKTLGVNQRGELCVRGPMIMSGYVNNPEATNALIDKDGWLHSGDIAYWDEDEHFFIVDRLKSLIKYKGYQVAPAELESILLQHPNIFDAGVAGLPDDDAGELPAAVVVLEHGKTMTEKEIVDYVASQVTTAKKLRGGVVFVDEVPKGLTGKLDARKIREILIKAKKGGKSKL

O=C(O)CCc1ccc(O)c(O)c1 [DIHYDROCAFFEIC ACID]
IC50 [1]: > 50 µM (not active)

COc1ccc(N/N=C/c2c(C(=O)O)ccc3ccccc23)cc1
EC50 [2]: 9.66 µM (active) | EC50 [3]: 9.27 µM (active) | IC50 [4]: 37 µM (not active) | EC50 [5]: > 350 µM (not active) | CC50 [6]: 364 nM (active) | CC50 [7]: 4.9 µM (active) | CC50 [8]: 2 µM (active) | IC50 [9]: > 80 µM (inactive) | AC50 [10]: 5.11 µM (active) | AC50 [11]: 4.56 µM (active) | AC50 [12]: 786 nM (active)

O=C(CN1C(=O)c2ccccc2S1(=O)=O)NCCSC1CCCCC1
IC50 [13]: 9.32 µM (active) | EC50 [14]: > 10 µM (not active)

CCCCOC(=O)c1ccc2c(c1)C1C=CCC1C(C(=O)O)N2 (stereo not drawn)
IC50 [15]: 10.4 µM (active) | IC50 [16]: 76.6 µM (active) | IC50 [17]: > 100 µM (not active) | IC50 [18]: 63.3 µM (active) | IC50 [19]: 41.8 µM (active) | IC50 [20]: 4.02 µM (active)

CC(C)CNC(=O)c1coc(=O)c(Br)c1
EC50 [21]: 1.83 µM (active) | EC50 [22]: 20.4 µM (active) | IC50 [23]: 22 µM (inactive) | AC50 [24]: > 52 µM (inactive) | IC50 [25]: 7.5 µM (active) | AC50 [26]: 23.9 µM (active)

C[C@]12CC[C@@H]3c4ccc(O)cc4C(=O)C[C@H]3[C@@H]1CC[C@@H]2O
EC50 [27]: 12.5 µM (active)

CCOC(=O)OCC1OC(c2ccccc2)C=CC1Oc1ccc(F)cc1C (stereo not drawn)
AC50 [28]: 3.16 µM (inconclusive)

Cc1cccc(C)c1OCC(O)Cn1c2ccccc2c2ccccc21 (stereo not drawn)
EC50 [29]: 6.75 µM (active) | EC50 [30]: 9.21 µM (active) | EC50 [31]: 3.98 µM (active) | EC50 [32]: 7.9 µM (active) | IC50 [33]: > 69.5 µM (inactive)
